Measured values published in patent US6552080B1, “Fungicidal compounds having a fluorovinyl-or fluoropropenyl-oxyphenyloxime moiety and process for the preparation thereof” (Korea Research Institute of Chemical Technology, priority 1999, dated 2003).

system: Botrytis cinerae; assay: Fungicidal activity against Cucumber Gray Mold Rot (CGM) disease; format: in vivo; conditions: Cucumber Gray Mold Rot; concentration 50 ppm

| SMILES | CGM (Fungicidal Activities, C.V.) [%] |
| --- | --- |
| COC=C(C(=O)OC)c1ccccc1CON=C(C)c1cccc(OC(F)=C(c2cc(C)cc(C)c2)C(F)(F)F)c1 [Compound 154] | 58 |
| CNC(=O)C(=NOC)c1ccccc1CON=Cc1cccc(OC(F)=C(c2ccc(F)cc2)C(F)(F)F)c1 [Compound 145] | 0 |
| CCOc1ccc(C=C(F)Oc2cccc(C(C)=NOCc3ccccc3C(=NOC)C(=O)OC)c2)cc1 [Compound 73] | 0 |
| COC=C(C(=O)OC)c1ccccc1CON=C(C)c1cccc(OC(F)=Cc2cc(C)cc(C)c2)c1 [Compound 44] | 5 |

system: Rhizoctonia solani AG-1; assay: Fungicidal activity against Rice Sheath Blight (RSB) disease; conditions: Rice Sheath Blight; concentration 2 ppm

| SMILES | RSB (Fungicidal Activities, C.V.) [%] |
| --- | --- |
| COC=C(C(=O)OC)c1ccccc1CON=C(C)c1cccc(OC(F)=C(c2cc(C)cc(C)c2)C(F)(F)F)c1 [Compound 154] | 25 |
| CCOc1ccc(C=C(F)Oc2cccc(C(C)=NOCc3ccccc3C(=NOC)C(=O)OC)c2)cc1 [Compound 73] | 25 |

same assay, conditions: Rice Sheath Blight; concentration 10 ppm

| SMILES | RSB (Fungicidal Activities, C.V.) [%] |
| --- | --- |
| COC=C(C(=O)OC)c1ccccc1CON=C(C)c1cccc(OC(F)=C(c2cc(C)cc(C)c2)C(F)(F)F)c1 [Compound 154] | 35 |

same assay, conditions: Rice Sheath Blight; concentration 50 ppm

| SMILES | RSB (Fungicidal Activities, C.V.) [%] |
| --- | --- |
| COC=C(C(=O)OC)c1ccccc1CON=C(C)c1cccc(OC(F)=C(c2cc(C)cc(C)c2)C(F)(F)F)c1 [Compound 154] | 90 |
| CNC(=O)C(=NOC)c1ccccc1CON=Cc1cccc(OC(F)=C(c2ccc(F)cc2)C(F)(F)F)c1 [Compound 145] | 64 |
| CCOc1ccc(C=C(F)Oc2cccc(C(C)=NOCc3ccccc3C(=NOC)C(=O)OC)c2)cc1 [Compound 73] | 100 |
| COC=C(C(=O)OC)c1ccccc1CON=C(C)c1cccc(OC(F)=Cc2cc(C)cc(C)c2)c1 [Compound 44] | 75 |

system: Puccinia recondita; assay: Fungicidal activity against Wheat Leaf Rust (WLR) disease; format: in vivo; conditions: Wheat Leaf Rust; concentration 2 ppm

| SMILES | WLR (Fungicidal Activities, C.V.) [%] |
| --- | --- |
| COC=C(C(=O)OC)c1ccccc1CON=C(C)c1cccc(OC(F)=C(c2cc(C)cc(C)c2)C(F)(F)F)c1 [Compound 154] | 73 |
| CNC(=O)C(=NOC)c1ccccc1CON=Cc1cccc(OC(F)=C(c2ccc(F)cc2)C(F)(F)F)c1 [Compound 145] | 83 |
| CCOc1ccc(C=C(F)Oc2cccc(C(C)=NOCc3ccccc3C(=NOC)C(=O)OC)c2)cc1 [Compound 73] | 98 |
| COC=C(C(=O)OC)c1ccccc1CON=C(C)c1cccc(OC(F)=Cc2cc(C)cc(C)c2)c1 [Compound 44] | 96 |

same assay, conditions: Wheat Leaf Rust; concentration 10 ppm

| SMILES | WLR (Fungicidal Activities, C.V.) [%] |
| --- | --- |
| COC=C(C(=O)OC)c1ccccc1CON=C(C)c1cccc(OC(F)=C(c2cc(C)cc(C)c2)C(F)(F)F)c1 [Compound 154] | 96 |
| COC=C(C(=O)OC)c1ccccc1CON=C(C)c1cccc(OC(F)=Cc2cc(C)cc(C)c2)c1 [Compound 44] | 100 |

same assay, conditions: Wheat Leaf Rust; concentration 50 ppm

| SMILES | WLR (Fungicidal Activities, C.V.) [%] |
| --- | --- |
| COC=C(C(=O)OC)c1ccccc1CON=C(C)c1cccc(OC(F)=C(c2cc(C)cc(C)c2)C(F)(F)F)c1 [Compound 154] | 98 |
| CNC(=O)C(=NOC)c1ccccc1CON=Cc1cccc(OC(F)=C(c2ccc(F)cc2)C(F)(F)F)c1 [Compound 145] | 100 |
| CCOc1ccc(C=C(F)Oc2cccc(C(C)=NOCc3ccccc3C(=NOC)C(=O)OC)c2)cc1 [Compound 73] | 100 |
| COC=C(C(=O)OC)c1ccccc1CON=C(C)c1cccc(OC(F)=Cc2cc(C)cc(C)c2)c1 [Compound 44] | 100 |

system: Pyricularia oryzae Carvara KA301; assay: not given; format: in vivo; conditions: Rice Blast; concentration 2 ppm

| SMILES | RCV (Fungicidal Activities, C.V.) [%] |
| --- | --- |
| CNC(=O)C(=NOC)c1ccccc1CON=Cc1cccc(OC(F)=C(c2ccc(F)cc2)C(F)(F)F)c1 [Compound 145] | 83 |
| CCOc1ccc(C=C(F)Oc2cccc(C(C)=NOCc3ccccc3C(=NOC)C(=O)OC)c2)cc1 [Compound 73] | 100 |
| COC=C(C(=O)OC)c1ccccc1CON=C(C)c1cccc(OC(F)=Cc2cc(C)cc(C)c2)c1 [Compound 44] | 85 |

same assay, conditions: Rice Blast; concentration 10 ppm

| SMILES | RCV (Fungicidal Activities, C.V.) [%] |
| --- | --- |
| COC=C(C(=O)OC)c1ccccc1CON=C(C)c1cccc(OC(F)=Cc2cc(C)cc(C)c2)c1 [Compound 44] | 95 |

same assay, conditions: Rice Blast; concentration 50 ppm

| SMILES | RCV (Fungicidal Activities, C.V.) [%] |
| --- | --- |
| COC=C(C(=O)OC)c1ccccc1CON=C(C)c1cccc(OC(F)=C(c2cc(C)cc(C)c2)C(F)(F)F)c1 [Compound 154] | 16 |
| CNC(=O)C(=NOC)c1ccccc1CON=Cc1cccc(OC(F)=C(c2ccc(F)cc2)C(F)(F)F)c1 [Compound 145] | 100 |
| CCOc1ccc(C=C(F)Oc2cccc(C(C)=NOCc3ccccc3C(=NOC)C(=O)OC)c2)cc1 [Compound 73] | 95 |
| COC=C(C(=O)OC)c1ccccc1CON=C(C)c1cccc(OC(F)=Cc2cc(C)cc(C)c2)c1 [Compound 44] | 100 |

system: Erysiphae graminis; assay: Fungicidal activity against Barley Powdery Mildew (BPM) disease; format: in vivo; conditions: Barley Powdery Mildew; concentration 2 ppm

| SMILES | BPM (Fungicidal Activities, C.V.) [%] |
| --- | --- |
| COC=C(C(=O)OC)c1ccccc1CON=C(C)c1cccc(OC(F)=C(c2cc(C)cc(C)c2)C(F)(F)F)c1 [Compound 154] | 68 |
| CNC(=O)C(=NOC)c1ccccc1CON=Cc1cccc(OC(F)=C(c2ccc(F)cc2)C(F)(F)F)c1 [Compound 145] | 33 |
| CCOc1ccc(C=C(F)Oc2cccc(C(C)=NOCc3ccccc3C(=NOC)C(=O)OC)c2)cc1 [Compound 73] | 100 |
| COC=C(C(=O)OC)c1ccccc1CON=C(C)c1cccc(OC(F)=Cc2cc(C)cc(C)c2)c1 [Compound 44] | 100 |

same assay, conditions: Barley Powdery Mildew; concentration 10 ppm

| SMILES | BPM (Fungicidal Activities, C.V.) [%] |
| --- | --- |
| COC=C(C(=O)OC)c1ccccc1CON=C(C)c1cccc(OC(F)=C(c2cc(C)cc(C)c2)C(F)(F)F)c1 [Compound 154] | 98 |
| COC=C(C(=O)OC)c1ccccc1CON=C(C)c1cccc(OC(F)=Cc2cc(C)cc(C)c2)c1 [Compound 44] | 100 |

same assay, conditions: Barley Powdery Mildew; concentration 50 ppm

| SMILES | BPM (Fungicidal Activities, C.V.) [%] |
| --- | --- |
| COC=C(C(=O)OC)c1ccccc1CON=C(C)c1cccc(OC(F)=C(c2cc(C)cc(C)c2)C(F)(F)F)c1 [Compound 154] | 100 |
| CNC(=O)C(=NOC)c1ccccc1CON=Cc1cccc(OC(F)=C(c2ccc(F)cc2)C(F)(F)F)c1 [Compound 145] | 100 |
| CCOc1ccc(C=C(F)Oc2cccc(C(C)=NOCc3ccccc3C(=NOC)C(=O)OC)c2)cc1 [Compound 73] | 100 |
| COC=C(C(=O)OC)c1ccccc1CON=C(C)c1cccc(OC(F)=Cc2cc(C)cc(C)c2)c1 [Compound 44] | 100 |

system: Phytophthora infestans; assay: not given; format: in vivo; conditions: Tomato Late Blight; concentration 2 ppm

| SMILES | TLB (Fungicidal Activities, C.V.) [%] |
| --- | --- |
| CCOc1ccc(C=C(F)Oc2cccc(C(C)=NOCc3ccccc3C(=NOC)C(=O)OC)c2)cc1 [Compound 73] | 0 |

same assay, conditions: Tomato Late Blight; concentration 50 ppm

| SMILES | TLB (Fungicidal Activities, C.V.) [%] |
| --- | --- |
| COC=C(C(=O)OC)c1ccccc1CON=C(C)c1cccc(OC(F)=C(c2cc(C)cc(C)c2)C(F)(F)F)c1 [Compound 154] | 12 |
| CNC(=O)C(=NOC)c1ccccc1CON=Cc1cccc(OC(F)=C(c2ccc(F)cc2)C(F)(F)F)c1 [Compound 145] | 0 |
| CCOc1ccc(C=C(F)Oc2cccc(C(C)=NOCc3ccccc3C(=NOC)C(=O)OC)c2)cc1 [Compound 73] | 60 |
| COC=C(C(=O)OC)c1ccccc1CON=C(C)c1cccc(OC(F)=Cc2cc(C)cc(C)c2)c1 [Compound 44] | 71 |
